We go through 17 molecules from US12390467B2, “Necroptosis inducers or autophagy inhibitors or a combination thereof” (The University of Toledo, priority 2018, dated 2025).

What all share (type): cell-based
For test [1], the system named is MDA-MB231 (TNBC cell line). Briefly: MTT cell viability assay, MDA-MB231. As to conditions: Homo sapiens, MDA-MB-231, 72 h, read-out: IC50 ± SD, MDA-MB231. The protocol: (§1) The following cancer and non-cancer cell lines were used in the initial cytotoxicity screening of the TPH104 compounds: triple negative breast cancer (TNBC): MDA-MB468, MDA-MB 231, and BT-20; non-TNBC: MCF-7 and ZR-75-1; ovarian: Ov2008; prostate: DU145; colon: HCT-116, S1, and LOVO; lung: H460; normal kidney: HEK-293; normal breast: HMEC; and normal colon: CRL-1459. All cells were cultured in Dulbecco's modified Eagle medium (DMEM), supplemented with 10% fetal bovine serum (FBS), and 1% penicillin/streptomycin (P/S). Cells were allowed to grow as adherent monolayers in T25 flasks in a humidified incubator with 5% CO2 at 37° C. for a period of 24 h, unless otherwise specified for certain experiments.
(§2) The MTT assay was used to determine the cytotoxicity of all of the compounds. Briefly, in a 96-well flat-bottom cell culture plate, the cells were seeded at a density between 3-5×10^3 cells/well (180 μl in each well) and incubated for 24 h (a hemocytometer was used for cell counting). The next day, the cells were incubated with different concentrations of the nine compounds (0, 0.1, 0.3, 1, 3, 10, 30, and 100 μM) for 72 h. After 72 h, 20 μl of 5 mg/ml of 3-(4,5-dimethylthiazol-2-yl)-2,5-diphenyltetrazolium bromide (MTT) was added to the plate and incubated with the cells for 3 h at 37° C. In this experiment, the living cells will reduce the soluble MTT dye to non-soluble purple formazan crystals. Following incubation, the media containing MTT removed via suction and 100 μL of 100% dimethyl sulfoxide (DMSO) was added to dissolve the formazan crystals. Subsequently, the plate was shaken for 2 minutes and the absorbance was measured at a wavelength of 570 nm using a SpectraMax iD3 Multi-Mode Microplate Reader (Molecular Devices, Sunnyvale, CA). The IC50 values of each compound were calculated and used to determine the selectivity ratio (IC50 in normal cells/IC50 in cancer cells) of each compound as previously described. Based on the results obtained from these experiments, the compound TPH104, which had the lowest IC50 value, was selected for further experiments.
In general terms: Formazan colour is commonly taken as a measure of viable cells.

Test [2] concerns MCF-7 (non-TNBC cell line). Briefly: MTT cell viability assay, MCF-7. The settings on record: Homo sapiens, MCF7, 72 h, read-out: IC50 ± SD, MCF-7. The protocol: as §1, §2
For test [3], the system named is ZR-75-1 (non-TNBC cell line). Nature of the test: MTT cell viability assay, ZR-75-1. As to conditions: Homo sapiens, ZR-75-1, 72 h, read-out: IC50 ± SD, ZR-75-1. The protocol: as §1, §2
For test [4], the system named is MDA-MB468 (TNBC cell line). Nature of the test: MTT cell viability assay, MDA-MB468. As to conditions: Homo sapiens, MDA-MB-468, 72 h, read-out: IC50 ± SD, MDA-MB468. The protocol:
as §1, §2

The subject of another test is TNBC cell lines. Nature of the test: Cytotoxicity screening (MTT), TNBC cell lines overall. As to conditions: classification of Table 1 cytotoxicity data.
Source text: To this end, several commercial databases were searched, and 17 similar molecules from the VitasM database were retrieved with considerable structural diversity in terms of the substitution on the aryl ring A attached to the thienopyrimidine scaffold and aryl ring B attached to hydrazino moiety. Further, the biological evaluation of the 17 molecules sheds light on the structural features deemed important for the selective cytotoxicity shown by this class of molecules. With this understanding, the 17 molecules were subjected to a screening protocol comprising of two TNBC, two non-TNBC, and one normal cell lines.
as §1, §2

Test [5] deals with normal human mammary epithelial cells (HMEC). Briefly: MTT cell viability assay, HMEC. The settings on record: Homo sapiens, HMEC; MTT, 72 h; Normal; read-out: IC50 ± SD, HMEC. The protocol: as §1, §2
The test system of test [6] is RIP, p-RIP, MLKL, caspase 8 in MDA-MB468 cells. Briefly: Western blot, necroptotic proteins, MDA-MB468. The settings on record: 100 μM. The protocol:
The TNBC cells were seeded in a culture flask and incubated for 24 h. The cells were then incubated with different concentrations of the lead compounds and re-incubated for an additional 12 or 24 h. […] The bicinchoninic acid (BCA) was used to determine protein concentration in the cell extracts (G-BIOSCIENCES, St. Louis, MO, USA). […] The membrane was blocked using 5% milk in Tris-buffered Tween 20 saline for 30 minutes. The membrane was then incubated overnight with primary antibodies against Bak, Bax, Bcl-2, caspase9, caspase 3, caspase 7, PARP, cytochrome c, N-cadherin, E-cadherin, c-Myc, dishevelled segment polarity protein 3 (DVL3), dishevelled segment polarity protein 2 (DVL2), Vimentin, mitogen-activated protein kinase kinase (MAPKK also known as MEK1/2), β-catenin, low-density lipoprotein receptor-related protein 6 (LRP6), receptor-interacting protein kinase (RIP), phosphorylated RIP (p-RIP), mixed lineage kinase domain like pseudokinase(MLKL), Caspase 8, light chain 3 (LC3), lysosomal-associated membrane protein 1 (LAMP1), unc-51 like autophagy activating kinase 1 (ULK1), ras associated protein 7 (Rab7), ras associated protein 5 (Rab5), Beclin 1, mechanistic target of rapamycin (mTOR), tumor necrosis factor alpha (TNF-α), tumor necrosis factor receptor 1 (TNFR1), tumor necrosis factor receptor 2 (TNFR2), Fas-associated protein with death domain (FADD), Fas ligand (Fas), TNF-related apoptosis-inducing ligand (TRAIL), death receptor 5 (DR5), Tumor necrosis factor receptor type 1-associated DEATH domain (TRADD), receptor-interacting protein kinase 3 (RIP3), β-actin or GAPDH in 1:1000 dilution in 5% milk or 5% BSA at 4° C. Horseradish peroxidase-labeled (HRP) anti-rabbit or anti-mouse secondary antibodies (1:5,000 dilution) were added and incubated the next day for an additional 1 h. A ChemiDoc™ MP System imaging system from Bio-Rad (Hercules, CA, USA) was used for blots reading. Blots were used to obtain the protein bands, followed by quantification of the bands using image J software (NIH, Bethesda, MD, USA). All of the data were expressed as the ratio of β-actin or GAPDH.
A general note: In western blotting, separated proteins are transferred to a membrane and probed.

In general, IC50 refers to the concentration that inhibits the measured activity by half. Consider `COc1cc(OC)c(OC)cc1/C=N/Nc1ncnc2scc(-c3ccccc3)c12` [TPH104e], for which the IC50 in test [1], in test [2], in test [3], in test [4] and in test [5] was more than 100 µM in each case. The “potency compared to TPH104” value in the test on TNBC cell lines was “poor or no potency”.

Take “necrostatin-1 [nec-1, reference compound]”: the “expression of RIP, p-RIP, MLKL, and caspase 8” value in test [6] was “significantly downregulated”.

Regarding `Oc1ccccc1/C=N/Nc1ncnc2scc(-c3ccccc3)c12` [TPH104j], the IC50 in test [1] worked out at 0.78 ± 0.28 µM; in test [2], 2.84 ± 0.96 µM; in test [3], 3.42 ± 1.53 µM; in test [4] it was 0.56 ± 0.34 µM; in test [5] it was 4.52 ± 1.38 µM. Also, in the test with TNBC cell lines, the “potency compared to TPH104” value is on record as “moderate potency compared to TPH104”.

For `CCOc1cc(/C=N/Nc2ncnc3scc(-c4ccccc4)c23)ccc1O` [TPH104n], the IC50 in test [1] was 23.1 ± 1.88 µM; in test [2] it was more than 100 µM; in test [3], 21.5 ± 3.67 µM; in test [4], 21.7 ± 0.3 µM; in test [5], more than 100 µM. For the same molecule, the “potency compared to TPH104” value in the test on TNBC cell lines is given as “poor or no potency”.

As for `COc1cccc(/C=N/Nc2ncnc3scc(-c4ccccc4)c23)c1O` [TPH104c], the IC50 in test [1] is 0.23 ± 0.01 µM; in test [2], more than 100 µM; in test [3] it was 10.7 ± 1.1 µM; in test [4], 0.18 ± 0.02 µM; in test [5] it was more than 100 µM. Besides, the “potency compared to TPH104” value in the test on TNBC cell lines is “equipotent to TPH104”.

On to `COc1ccccc1/C=N/Nc1ncnc2scc(-c3ccccc3)c12` [TPH104f], for which the IC50 in test [1] was 29.38 ± 0.08 µM; in test [2], more than 100 µM; in test [3] it was more than 100 µM; in test [4], 7.87 ± 1.53 µM; in test [5], more than 100 µM. The “potency compared to TPH104” value in the test on TNBC cell lines was “poor or no potency”.

`Oc1cc(Br)ccc1/C=N/Nc1ncnc2scc(-c3ccccc3)c12` [TPH104k]: the IC50 in test [1] was 1.29 ± 0.52 µM; in test [2], 15.6 ± 6.5 µM; in test [3] it was 6.07 ± 5.18 µM; in test [4], 0.91 ± 0.09 µM; in test [5] it was more than 100 µM. Also, the “potency compared to TPH104” value in the test with TNBC cell lines was “moderate potency compared to TPH104”.

Take `Oc1ccccc1/C=N/Nc1ncnc2scc(-c3ccc(Cl)cc3)c12` [TPH104a]: the IC50 in test [1] worked out at 0.28 ± 0.06 µM; in test [2] it was 6.96 ± 1.15 µM; in test [3], 2.29 ± 0.23 µM; in test [4], 0.44 ± 0.26 µM; in test [5], 27.9 ± 8.95 µM. In the test with TNBC cell lines, the “potency compared to TPH104” value is on record as “comparable potency to that of TPH104”.

With `Cc1ccc(-c2csc3ncnc(N/N=C/c4ccc(C)cc4O)c23)cc1` [TPH104o], the IC50 in test [1] is 0.43 ± 0.19 µM; in test [2], 1.22 ± 0.6 µM; in test [3], 1.04 ± 0.54 µM; in test [4], 0.56 ± 0.24 µM; in test [5], more than 100 µM. In addition, the “potency compared to TPH104” value in the test on TNBC cell lines is given as “moderate potency compared to TPH104”.

Take `COc1cc(OC)c(OC)cc1/C=N/Nc1ncnc2scc(-c3ccc(Cl)cc3)c12` [TPH104p]: the IC50 in test [1] was 62.2 ± 8.83 µM; in test [2], more than 100 µM; in test [3] it was 23 ± 0.59 µM; in test [4] it was 55.9 ± 0.98 µM; in test [5], more than 100 µM. Also, the “potency compared to TPH104” value in the test on TNBC cell lines is given as “poor or no potency”.

With `COc1cc(/C=N/Nc2ncnc3scc(-c4ccccc4)c23)ccc1O` [TPH104q], the IC50 in test [1] is 18.6 ± 2.57 µM; in test [2], 23.5 ± 1.12 µM; in test [3], 21.4 ± 3.11 µM; in test [4] it was 22.2 ± 0.78 µM; in test [5], more than 100 µM. Further, the “potency compared to TPH104” value in the test on TNBC cell lines was “poor or no potency”.

In the case of `COc1ccc(/C=N/Nc2ncnc3scc(-c4ccc(C)cc4)c23)c(OC)c1OC` [TPH104g], the IC50 is 27.64 ± 0.15 µM in test [1]; 27.2 ± 2.92 µM in test [2]; 28.9 ± 2.61 µM in test [3]; 27.3 ± 4.53 µM in test [4]; more than 100 µM in test [5]. Further, in the test on TNBC cell lines, the “potency compared to TPH104” value is “poor or no potency”.

For `Oc1ccc(/C=N/Nc2ncnc3scc(-c4ccccc4)c23)c(O)c1` [TPH104l], the IC50 in test [1] was 0.78 ± 0.38 µM; in test [2], 6.59 ± 0.58 µM; in test [3], 8.68 ± 1.04 µM; in test [4], 1.47 ± 0.84 µM; in test [5] it was more than 100 µM. The “potency compared to TPH104” value with TNBC cell lines was “moderate potency compared to TPH104”.

For the molecule `COc1ccc(/C=N/Nc2ncnc3scc(-c4ccccc4)c23)c(OC)c1` [TPH104i], the IC50 in test [1], in test [2], in test [3], in test [4] and in test [5] was more than 100 µM in each case. For the same molecule, the “potency compared to TPH104” value in the test with TNBC cell lines was “poor or no potency”.

As to `COc1cccc(/C=N/Nc2ncnc3scc(-c4ccccc4)c23)c1OC` [TPH104h], the IC50 in test [1] was 96.7 ± 0.14 µM; in test [2] it was 63 ± 2.89 µM; in test [3] it was more than 100 µM; in test [4], more than 100 µM; in test [5], more than 100 µM. In addition, the “potency compared to TPH104” value with TNBC cell lines was “poor or no potency”.

For the molecule `Cc1ccc(-c2csc3ncnc(N/N=C/c4ccccc4O)c23)cc1` [TPH104d], the IC50 in test [1] was 2.29 ± 0.16 µM; in test [2], more than 100 µM; in test [3], 6.05 ± 2.02 µM; in test [4] it was 2.22 ± 1.82 µM; in test [5], 33.1 ± 2.33 µM. Further, in the test with TNBC cell lines, the “potency compared to TPH104” value was “moderate potency compared to TPH104”.

As to `Oc1c(/C=N/Nc2ncnc3scc(-c4ccccc4)c23)cc2c3c1CCCN3CCC2` [TPH104b], the IC50 in test [1] was 0.25 ± 0.02 µM; in test [2], 1.52 ± 0.57 µM; in test [3], 1.18 ± 0.53 µM; in test [4], 0.23 ± 0.05 µM; in test [5] it was more than 100 µM. The “potency compared to TPH104” value with TNBC cell lines is “equipotent to TPH104”.
